Measured values as given in US12187746B2, “C26-linked rapamycin analogs as mTOR inhibitors” (Revolution Medicines, Inc., priority 2018, dated 2025).

Legend:
P-P70S6K (T389) = assay: Cell based AlphaLISA assay, inhibition of P-P70S6K (T389) in MDA-MB-468 cells; conditions: Homo sapiens, 4 h, 0.017-1,000 nM, two to four hours at 37° C., AlphaLisa SureFire Ultra, read-out: pIC50 for Inhibition of mTORC1 and mTORC2 Substrate Phosphorylation, p-P70S6K-(T389) (converted)
Description: (§1) Cell Based AlphaLISA Assays For Determining IC50 For Inhibition of P-Akt (S473), P-4E-BP1 (T37/46), and P-P70S6K (T389) in MDA-MB-468 Cells
(§2) mTOR Kinase Cellular Assay
(§3) To measure functional activity of mTORC1 and mTORC2 in cells the phosphorylation of 4EBP1 (Thr37/46) and P70S6K (Thr389), and AKT1/2/3 (Ser473) was monitored using AlphaLisa SureFire Ultra Kits (Perkin Elmer). […] Incubations are terminated by removal of the assay buffer and addition of lysis buffer provided with the assay kit. Samples are processed according to the manufacturer's instructions. The Alpha signal from the respective phosphoproteins is measured in duplicate using a microplate reader (Envision, Perkin-Elmer or Spectramax M5, Molecular Devices). Inhibitor concentration response curves are analyzed using normalized IC50 regression curve fitting with control based normalization.

P-4E-BP1 (T37/46) = assay: Cell based AlphaLISA assay, inhibition of P-4E-BP1 (T37/46) in MDA-MB-468 cells; conditions: Homo sapiens, 4 h, 0.017-1,000 nM, two to four hours at 37° C., AlphaLisa SureFire Ultra, read-out: pIC50 for Inhibition of mTORC1 and mTORC2 Substrate Phosphorylation, p-4E-BP1-(T37/46) (converted)
Description: as §1, §2, §3

P-Akt (S473) = assay: Cell based AlphaLISA assay, inhibition of P-Akt (S473) in MDA-MB-468 cells; conditions: Homo sapiens, 4 h, 0.017-1,000 nM, two to four hours at 37° C., AlphaLisa SureFire Ultra, read-out: pIC50 for Inhibition of mTORC1 and mTORC2 Substrate Phosphorylation, p-AKT1/2/3-(S473) (converted)
Description: as §1, §2, §3

Compound	IC50 (P-P70S6K (T389))	IC50 (P-4E-BP1 (T37/46))	IC50 (P-Akt (S473))
CO[C@H]1C[C@@H]2CC[C@@H](C)[C@@](O)(O2)C(=O)C(=O)N2CCCC[C@H]2C(=O)O[C@H]([C@H](C)C[C@@H]2CC[C@@H](O)[C@H](OC)C2)C[C@@H](O)[C@H](C)/C=C(\C)[C@@H](O)[C@@H](OC)C(=NOc2cccc(C(=O)NCc3cnc(N4CCN(C(=O)CCOCCN5CCN(c6ncc(C(=O)N7CCc8cc(Cn9nc(-c%10ccc%11oc(N)nc%11c%10)c%10c(N)ncnc%109)ccc8C7)cn6)CC5)CC4)nc3)c2)[C@H](C)C[C@H](C)/C=C/C=C/C=C/1C [Example 35]	10 to 1000 nM	> 1000 nM	> 1000 nM
CO[C@H]1C[C@@H]2CC[C@@H](C)[C@@](O)(O2)C(=O)C(=O)N2CCCC[C@H]2C(=O)O[C@H]([C@H](C)C[C@@H]2CC[C@@H](O)[C@H](OC)C2)C[C@@H](O)[C@H](C)/C=C(\C)[C@@H](O)[C@@H](OC)C(=NOCC(=O)NCc2cnc(N3CCN(C(=O)CCOCCN4CCN(C(=O)CN(C)CC(=O)N5CCc6cc(Cn7nc(-c8ccc9oc(N)nc9c8)c8c(N)ncnc87)ccc6C5)CC4)CC3)nc2)[C@H](C)C[C@H](C)/C=C/C=C/C=C/1C [Example 36]	1 to 10 nM	31.6 to 1000 nM	> 1000 nM
CO[C@H]1C[C@@H]2CC[C@@H](C)[C@@](O)(O2)C(=O)C(=O)N2CCCC[C@H]2C(=O)O[C@H]([C@H](C)C[C@@H]2CC[C@@H](O)[C@H](OC)C2)C[C@@H](O)[C@H](C)/C=C(\C)[C@@H](O)[C@@H](OC)C(=NOCC(=O)NCc2cnc(N3CCN(C(=O)CCCN4CCN(c5ncc(C(=O)NCCCCn6nc(-c7ccc8oc(N)nc8c7)c7c(N)ncnc76)cn5)CC4)CC3)nc2)[C@H](C)C[C@H](C)/C=C/C=C/C=C/1C [Example 37]	< 1 nM	3.16 to 31.6 nM	3.16 to 31.6 nM
CO[C@H]1C[C@@H]2CC[C@@H](C)[C@@](O)(O2)C(=O)C(=O)N2CCCC[C@H]2C(=O)O[C@H]([C@H](C)C[C@@H]2CC[C@@H](O)[C@H](OC)C2)C[C@@H](O)[C@H](C)/C=C(\C)[C@@H](O)[C@@H](OC)C(=NOCC(=O)NCc2cnc(N3CCN(C(=O)CCOCCN4CCN(c5ncc(C(=O)NCCOCCC(=O)N6CCc7cc(Cn8nc(-c9ccc%10oc(N)nc%10c9)c9c(N)ncnc98)ccc7C6)cn5)CC4)CC3)nc2)[C@H](C)C[C@H](C)/C=C/C=C/C=C/1C [Example 39]	1 to 10 nM	3.16 to 31.6 nM	> 1000 nM
CO[C@H]1C[C@@H]2CC[C@@H](C)[C@@](O)(O2)C(=O)C(=O)N2CCCC[C@H]2C(=O)O[C@H]([C@H](C)C[C@@H]2CC[C@@H](O)[C@H](OC)C2)C[C@@H](O)[C@H](C)/C=C(\C)[C@@H](O)[C@@H](OC)C(=NOCC(=O)NCc2cnc(N3CCN(C(=O)CCOCCN4CCN(CCOCCC(=O)N5CCc6cc(Cn7nc(-c8ccc9oc(N)nc9c8)c8c(N)ncnc87)ccc6C5)CC4)CC3)nc2)[C@H](C)C[C@H](C)/C=C/C=C/C=C/1C [Example 40]	1 to 10 nM	3.16 to 31.6 nM	> 1000 nM
CO[C@H]1C[C@@H]2CC[C@@H](C)[C@@](O)(O2)C(=O)C(=O)N2CCCC[C@H]2C(=O)O[C@H]([C@H](C)C[C@@H]2CC[C@@H](O)[C@H](OC)C2)C[C@@H](O)[C@H](C)/C=C(\C)[C@@H](O)[C@@H](OC)C(=NOCC(=O)NCCOCCC(=O)NCc2cnc(N3CCN(C(=O)CCOCCN4CCN(c5ncc(C(=O)NCCCCn6nc(-c7cnc8[nH]ccc8c7)c7c(N)ncnc76)cn5)CC4)CC3)nc2)[C@H](C)C[C@H](C)/C=C/C=C/C=C/1C [Example 42]	1 to 10 nM	3.16 to 31.6 nM	> 1000 nM
CO[C@H]1C[C@@H]2CC[C@@H](C)[C@@](O)(O2)C(=O)C(=O)N2CCCC[C@H]2C(=O)O[C@H]([C@H](C)C[C@@H]2CC[C@@H](O)[C@H](OC)C2)C[C@@H](O)[C@H](C)/C=C(\C)[C@@H](O)[C@@H](OC)C(=NOCC(=O)NCCOCCC(=O)NCc2cnc(N3CCN(C(=O)CCOCCN4CCN(c5ncc(C(=O)NCCCCn6nc(-c7ccc8oc(N)nc8c7)c7c(N)ncnc76)cn5)CC4)CC3)nc2)[C@H](C)C[C@H](C)/C=C/C=C/C=C/1C [Example 43]	< 1 nM	3.16 to 31.6 nM	31.6 to 1000 nM
CO[C@H]1C[C@@H]2CC[C@@H](C)[C@@](O)(O2)C(=O)C(=O)N2CCCC[C@H]2C(=O)O[C@H]([C@H](C)C[C@@H]2CC[C@@H](O)[C@H](OC)C2)C[C@@H](O)[C@H](C)/C=C(\C)[C@@H](O)[C@@H](OC)C(=NOCC(=O)NCCOCCC(=O)NCc2cnc(N3CCN(C(=O)CCOCCN4CCN(c5ncc(C(=O)N6CCc7cc(Cn8nc(-c9ccc%10oc(N)nc%10c9)c9c(N)ncnc98)ccc7C6)cn5)CC4)CC3)nc2)[C@H](C)C[C@H](C)/C=C/C=C/C=C/1C [Example 44]	< 1 nM	3.16 to 31.6 nM	31.6 to 1000 nM
CO[C@H]1C[C@@H]2CC[C@@H](C)[C@@](O)(O2)C(=O)C(=O)N2CCCC[C@H]2C(=O)O[C@H]([C@H](C)C[C@@H]2CC[C@@H](O)[C@H](OC)C2)C[C@@H](O)[C@H](C)/C=C(\C)[C@@H](O)[C@@H](OC)C(=NOCC(=O)NCCOCCOCCOCCOCCOCCOCCOCCOCCC(=O)NCCS(=O)(=O)c2ccc(C(=O)N3CCOc4ccc(-c5ccc(N)nc5)cc4C3)c(C)c2)[C@H](C)C[C@H](C)/C=C/C=C/C=C/1C [Example 45]	1 to 10 nM	3.16 to 31.6 nM	> 1000 nM
CO[C@H]1C[C@@H]2CC[C@@H](C)[C@@](O)(O2)C(=O)C(=O)N2CCCC[C@H]2C(=O)O[C@H]([C@H](C)C[C@@H]2CC[C@@H](O)[C@H](OC)C2)C[C@@H](O)[C@H](C)/C=C(\C)[C@@H](O)[C@@H](OC)C(=NOCC(=O)NCCOCCOCCOCCOCCOCCOCCOCCOCCC(=O)NCCS(=O)(=O)c2ccc(C(=O)N3CCOc4ccc(-c5ccc(N)nc5)cc4C3)c(C)c2F)[C@H](C)C[C@H](C)/C=C/C=C/C=C/1C [Example 46]	1 to 10 nM	3.16 to 31.6 nM	> 1000 nM
CO[C@H]1C[C@@H]2CC[C@@H](C)[C@@](O)(O2)C(=O)C(=O)N2CCCC[C@H]2C(=O)O[C@H]([C@H](C)C[C@@H]2CC[C@@H](O)[C@H](OC)C2)C[C@@H](O)[C@H](C)/C=C(\C)[C@@H](O)[C@@H](OC)C(=NOC(C)(C)C(=O)NCCOCCOCCOCCOCCOCCOCCC(=O)N2CCc3cc(Cn4nc(-c5ccc6oc(N)nc6c5)c5c(N)ncnc54)ccc3C2)[C@H](C)C[C@H](C)/C=C/C=C/C=C/1C [Example 48]	10 to 1000 nM	3.16 to 31.6 nM	> 1000 nM
CO[C@H]1C[C@@H]2CC[C@@H](C)[C@@](O)(O2)C(=O)C(=O)N2CCCC[C@H]2C(=O)O[C@H]([C@H](C)C[C@@H]2CC[C@@H](O)[C@H](OC)C2)C[C@@H](O)[C@H](C)/C=C(\C)[C@@H](O)[C@@H](OC)C(=NOCC(=O)NCc2cnc(N3CCN(c4ncc(C(=O)NCCOCCC(=O)N5CCc6cc(Cn7nc(-c8ccc9oc(N)nc9c8)c8c(N)ncnc87)ccc6C5)cn4)[C@H](CN(C)C)C3)nc2)[C@H](C)C[C@H](C)/C=C/C=C/C=C/1C [Example 49]	1 to 10 nM	3.16 to 31.6 nM	> 1000 nM
CO[C@H]1C[C@@H]2CC[C@@H](C)[C@@](O)(O2)C(=O)C(=O)N2CCCC[C@H]2C(=O)O[C@H]([C@H](C)C[C@@H]2CC[C@@H](O)[C@H](OC)C2)C[C@@H](O)[C@H](C)/C=C(\C)[C@@H](O)[C@@H](OC)C(=NOCC(=O)NCc2cnc(N3CCN(c4ncc(C(=O)NCCOCCC(=O)N5CCc6cc(Cn7nc(-c8ccc9oc(N)nc9c8)c8c(N)ncnc87)ccc6C5)c(N)n4)CC3)nc2)[C@H](C)C[C@H](C)/C=C/C=C/C=C/1C [Example 50]	10 to 1000 nM	> 1000 nM	> 1000 nM
CO[C@H]1C[C@@H]2CC[C@@H](C)[C@@](O)(O2)C(=O)C(=O)N2CCCC[C@H]2C(=O)O[C@H]([C@H](C)C[C@@H]2CC[C@@H](O)[C@H](OC)C2)C[C@@H](O)[C@H](C)/C=C(\C)[C@@H](O)[C@@H](OC)C(=NOCC(=O)NCc2cnc(N3CCN(c4ncc(C(=O)NCCOCCC(=O)NCCCCn5nc(-c6ccc7oc(N)nc7c6)c6c(N)ncnc65)c(N)n4)CC3)nc2)[C@H](C)C[C@H](C)/C=C/C=C/C=C/1C [Example 51]	10 to 1000 nM	> 1000 nM	> 1000 nM
CO[C@H]1C[C@@H]2CC[C@@H](C)[C@@](O)(O2)C(=O)C(=O)N2CCCC[C@H]2C(=O)O[C@H]([C@H](C)C[C@@H]2CC[C@@H](O)[C@H](OC)C2)C[C@@H](O)[C@H](C)/C=C(\C)[C@@H](O)[C@@H](OC)C(=NOCC(=O)NCc2cnc(N3CCC(N4CCC(C(=O)NCCOCCC(=O)N5CCc6cc(Cn7nc(-c8ccc9oc(N)nc9c8)c8c(N)ncnc87)ccc6C5)CC4)CC3)nc2)[C@H](C)C[C@H](C)/C=C/C=C/C=C/1C [Example 52]	1 to 10 nM	3.16 to 31.6 nM	> 1000 nM
